TGI data for 16 compounds are collected here from PubChem BioAssay (NCI).

Among the test systems are SF-295 CNS; K-562 leukemia; SN12C renal; 786-0 renal; MALME-3M melanoma; CAKI-1 renal; SF-539 CNS; NCI-H460 lung; UO-31 renal; KM12 colon; NCI/ADR-RES ovarian; CCRF-CEM leukemia; PC-3 prostate; U251 CNS; HS 578T breast; DU-145 prostate; SK-MEL-2 melanoma; RXF 393 renal; OVCAR-5 ovarian; T-47D breast.
What all share (assay): growth of human tumour cells (NCI), 48 h

SMILES strings stand for the structures.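 Results reflect a 48-hour exposure of cells in 96-well plates to compound at five concentrations. TGI marks complete inhibition of growth.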

Consider `Cc1ccc2c(=O)c3cccc(CC(=O)O)c3[nH]c2c1C`, for which the TGI in the test with SF-295 CNS, in the test on K-562 leukemia, in the test on SN12C renal, with 786-0 renal, in the test with MALME-3M melanoma and with CAKI-1 renal was above 100 µM in each case. Besides, the TGI in the test with SF-539 CNS, in the test on NCI-H460 lung, with UO-31 renal, with KM12 colon, with NCI/ADR-RES ovarian and in the test on CCRF-CEM leukemia was above 100 µM each time. The TGI in the test with PC-3 prostate, in the test on U251 CNS, with HS 578T breast and with DU-145 prostate was above 100 µM each time.
Consider `COc1cc(C)c2c(=O)c3ccccc3n(C)c2c1`, for which the TGI is 34.9 µM with SF-295 CNS; 39.1 µM in the test on K-562 leukemia; 41.5 µM with SN12C renal; above 100 µM with 786-0 renal; 73.2 µM with MALME-3M melanoma; 78.3 µM with SK-MEL-2 melanoma. Further, the TGI is 76.5 µM in the test with CAKI-1 renal; 34 µM in the test on SF-539 CNS; above 100 µM with NCI-H460 lung; 40.4 µM in the test with RXF 393 renal; above 100 µM in the test with KM12 colon; above 100 µM in the test on NCI/ADR-RES ovarian. Besides, the TGI in the test on CCRF-CEM leukemia is 75.4 µM; in the test on OVCAR-5 ovarian it was above 100 µM; in the test on PC-3 prostate it was 78.2 µM; with U251 CNS it was 44.8 µM; with HS 578T breast, 72.6 µM; in the test on DU-145 prostate it was above 100 µM.
On to `O/C(=C\c1nc2ccccc2nc1/C=C(\O)c1ccc(Cl)cc1)c1ccccc1`, for which the TGI in the test with T-47D breast, in the test on SF-295 CNS, with K-562 leukemia, in the test on SN12C renal, with 786-0 renal and in the test with MALME-3M melanoma was above 100 µM throughout. Also, the TGI with SK-MEL-2 melanoma is above 100 µM; with CAKI-1 renal it was 65.4 µM; in the test on SF-539 CNS, above 100 µM; in the test with NCI-H460 lung it was above 100 µM; in the test on UO-31 renal it was above 100 µM; with RXF 393 renal, above 100 µM. Also, the TGI in the test with KM12 colon, with NCI/ADR-RES ovarian, in the test on CCRF-CEM leukemia, with OVCAR-5 ovarian, in the test on PC-3 prostate and in the test on U251 CNS was above 100 µM each time. In the test with DU-145 prostate, the TGI was above 100 µM.
Take `N=C(N)N1CCC(N2CCOCC2)CC1`: the TGI with T-47D breast, in the test on SF-295 CNS, with K-562 leukemia, in the test on SN12C renal, in the test on 786-0 renal and in the test on MALME-3M melanoma was above 100 µM each time. The TGI in the test with SF-539 CNS, in the test with NCI-H460 lung, in the test on UO-31 renal, in the test on RXF 393 renal, with KM12 colon and in the test with NCI/ADR-RES ovarian was above 100 µM throughout. Besides, the TGI in the test on CCRF-CEM leukemia, in the test with OVCAR-5 ovarian, with U251 CNS, in the test on HS 578T breast and in the test on DU-145 prostate was above 100 µM each time.
With `N#Cc1c(O)c(N=Nc2ccccc2F)c(=O)n2c1[nH]c1ccccc12`, the TGI in the test on SF-295 CNS is above 100 µM; with K-562 leukemia, above 100 µM; in the test with SN12C renal it was above 100 µM; with 786-0 renal it was above 100 µM; with MALME-3M melanoma, above 100 µM; in the test with SK-MEL-2 melanoma, 57 µM. Besides, the TGI with SF-539 CNS, in the test with NCI-H460 lung, in the test on UO-31 renal, in the test on RXF 393 renal, with NCI/ADR-RES ovarian and with CCRF-CEM leukemia was above 100 µM throughout. Further, the TGI is above 100 µM in the test on OVCAR-5 ovarian; above 100 µM in the test with PC-3 prostate; above 100 µM with U251 CNS; 65.4 µM in the test on HS 578T breast; above 100 µM in the test on DU-145 prostate.
As to `O=C1C=C(Sc2ccccc2)c2nccc3c2c1nc1ccccc13`, the TGI in the test with SF-295 CNS is above 100 µM; in the test with SN12C renal, 32.2 µM; with 786-0 renal it was 49.6 µM; with MALME-3M melanoma, 30 µM; in the test with SK-MEL-2 melanoma, 27.3 µM; in the test with CAKI-1 renal, above 100 µM. The TGI in the test on SF-539 CNS is 31.1 µM; in the test on NCI-H460 lung it was 84.5 µM; in the test with UO-31 renal, 27.3 µM; in the test with KM12 colon, 51.6 µM; in the test with NCI/ADR-RES ovarian, above 100 µM; in the test with CCRF-CEM leukemia it was 12.3 µM. Besides, the TGI in the test on OVCAR-5 ovarian is above 100 µM; in the test on PC-3 prostate it was 26.2 µM; in the test with U251 CNS, 33.6 µM; with HS 578T breast, 46.5 µM; with DU-145 prostate it was above 100 µM.
As to `Cc1nc2ccc(S(=O)(=O)Nc3ccccc3)cc2c(=O)n1NC(=O)CNc1ccccc1`, the TGI in the test on SF-295 CNS, in the test with K-562 leukemia, in the test with SN12C renal, with 786-0 renal, in the test on MALME-3M melanoma and in the test with SK-MEL-2 melanoma was above 100 µM each time. For the same compound, the TGI with CAKI-1 renal, with SF-539 CNS, in the test on NCI-H460 lung, with UO-31 renal, with KM12 colon and with NCI/ADR-RES ovarian was above 100 µM in each case. Besides, the TGI in the test on CCRF-CEM leukemia, in the test on OVCAR-5 ovarian, with PC-3 prostate, in the test on U251 CNS, with HS 578T breast and with DU-145 prostate was above 100 µM throughout.
For the compound `COC(=O)c1sc2ncc3c(c2c1N)CCCCCC3`, the TGI with T-47D breast, with SF-295 CNS, with K-562 leukemia, in the test with SN12C renal, in the test on 786-0 renal and with MALME-3M melanoma was above 100 µM each time. For the same compound, the TGI in the test with SK-MEL-2 melanoma, with CAKI-1 renal, in the test on SF-539 CNS, with NCI-H460 lung, in the test with UO-31 renal and with RXF 393 renal was above 100 µM throughout. Besides, the TGI with KM12 colon, in the test with NCI/ADR-RES ovarian, with CCRF-CEM leukemia, in the test with OVCAR-5 ovarian, with PC-3 prostate and with U251 CNS was above 100 µM each time. In the test with DU-145 prostate, this compound gave a TGI above 100 µM.
With `Cc1ccc2ccccc2c1NC1=NCCO1`, the TGI in the test on T-47D breast, in the test with SF-295 CNS, with K-562 leukemia, in the test on SN12C renal, in the test on 786-0 renal and in the test with MALME-3M melanoma was above 100 µM in each case. In addition, the TGI in the test with SF-539 CNS, in the test on NCI-H460 lung, in the test with UO-31 renal, in the test with RXF 393 renal, with KM12 colon and in the test on NCI/ADR-RES ovarian was above 100 µM each time. In addition, the TGI in the test on CCRF-CEM leukemia, in the test on OVCAR-5 ovarian, in the test on U251 CNS, with HS 578T breast and with DU-145 prostate was above 100 µM throughout.
Take `O=C(NC(CS)C(=O)O)c1cccc2c(=O)c3ccccc3[nH]c12` (stereo not given): the TGI in the test on SF-295 CNS, in the test on K-562 leukemia, in the test on SN12C renal, in the test on 786-0 renal, in the test on MALME-3M melanoma and with SK-MEL-2 melanoma was above 100 µM in each case. Besides, the TGI in the test with UO-31 renal, in the test with KM12 colon, with NCI/ADR-RES ovarian, in the test with OVCAR-5 ovarian, with PC-3 prostate and with U251 CNS was above 100 µM each time. Moreover, the TGI in the test on HS 578T breast and in the test on DU-145 prostate was above 100 µM throughout.
In the case of `Cn1nc2ccc3nccc(N4CCN(CCO)CC4)c3c2n1`, the TGI in the test on T-47D breast, with SF-295 CNS, in the test on K-562 leukemia, with SN12C renal, with 786-0 renal and in the test with MALME-3M melanoma was above 100 µM throughout. Further, the TGI in the test with SK-MEL-2 melanoma, with NCI-H460 lung, in the test on UO-31 renal, in the test on RXF 393 renal, in the test on KM12 colon and in the test with CCRF-CEM leukemia was above 100 µM each time. Besides, the TGI in the test with OVCAR-5 ovarian, with PC-3 prostate, in the test with U251 CNS, with HS 578T breast and in the test with DU-145 prostate was above 100 µM throughout.
For `CC(=O)NC(C)(C)C1CC=C(C)CC1` (stereo not given), the TGI in the test with SF-295 CNS, with K-562 leukemia, in the test with SN12C renal, in the test with 786-0 renal, in the test on MALME-3M melanoma and in the test with CAKI-1 renal was above 100 µM throughout. Further, the TGI in the test with SF-539 CNS, in the test with NCI-H460 lung, in the test on UO-31 renal, in the test with RXF 393 renal, in the test with KM12 colon and with NCI/ADR-RES ovarian was above 100 µM each time. In addition, the TGI in the test on CCRF-CEM leukemia, with OVCAR-5 ovarian, with PC-3 prostate, in the test on U251 CNS, in the test with HS 578T breast and in the test with DU-145 prostate was above 100 µM in each case.
Turning to `Cc1ccc(NN=NCCCCN)cc1`, the TGI in the test with T-47D breast, with SF-295 CNS, with SN12C renal, in the test on 786-0 renal, in the test with MALME-3M melanoma and in the test with SK-MEL-2 melanoma was above 100 µM each time. For the same compound, the TGI in the test with CAKI-1 renal, with SF-539 CNS, with UO-31 renal, in the test on RXF 393 renal, with KM12 colon and in the test on NCI/ADR-RES ovarian was above 100 µM in each case. Also, the TGI in the test on CCRF-CEM leukemia, with OVCAR-5 ovarian, with HS 578T breast and in the test on DU-145 prostate was above 100 µM in each case.
In the case of `c1ccc(Cc2nc(Cc3n[nH]c(Cc4ccccc4)n3)n[nH]2)cc1`, the TGI in the test on SF-295 CNS, in the test with K-562 leukemia, with SN12C renal, with 786-0 renal, with SK-MEL-2 melanoma and in the test with SF-539 CNS was above 100 µM each time. For the same compound, the TGI with UO-31 renal, in the test with RXF 393 renal, in the test with KM12 colon, in the test on NCI/ADR-RES ovarian, in the test with CCRF-CEM leukemia and with OVCAR-5 ovarian was above 100 µM each time. Also, the TGI in the test on PC-3 prostate, with U251 CNS, in the test with HS 578T breast and in the test on DU-145 prostate was above 100 µM throughout.
In the case of `CC(=O)O[C@H]1C(=O)[C@@]2(C)[C@H]([C@H](OC(=O)c3cccc(C(F)(F)F)c3)[C@]3(O)C[C@H](OC(=O)[C@H](O)[C@@H](NC(=O)c4ccccc4)c4ccccc4)C(C)=C1C3(C)C)[C@]1(OC(C)=O)CO[C@@H]1C[C@@H]2O`, the TGI in the test on T-47D breast is above 25 µM; in the test on SF-295 CNS, 13.3 µM; with K-562 leukemia, 4.85 µM; in the test with SN12C renal, above 25 µM; in the test with 786-0 renal, 4.49 µM; in the test with MALME-3M melanoma, 10.5 µM. Also, the TGI is above 25 µM with CAKI-1 renal; 0.0105 µM in the test with SF-539 CNS; above 10.6 µM with NCI-H460 lung; above 15.9 µM in the test with UO-31 renal; 0.809 µM with RXF 393 renal; 24.8 µM in the test on KM12 colon. Also, the TGI is above 7.02 µM in the test on NCI/ADR-RES ovarian; 0.368 µM in the test with CCRF-CEM leukemia; above 10.7 µM in the test on OVCAR-5 ovarian; 0.0196 µM in the test on U251 CNS; 0.0653 µM in the test on HS 578T breast.
For the compound `FC(F)(Sc1ccccn1)c1nc2ccccc2o1`, the TGI in the test with T-47D breast, in the test with SF-295 CNS, with K-562 leukemia, in the test with SN12C renal, with 786-0 renal and with MALME-3M melanoma was above 100 µM in each case. Moreover, the TGI with SK-MEL-2 melanoma, in the test with CAKI-1 renal, in the test on SF-539 CNS, in the test on NCI-H460 lung, in the test on UO-31 renal and with RXF 393 renal was above 100 µM in each case. The TGI in the test with KM12 colon, in the test with NCI/ADR-RES ovarian, in the test on CCRF-CEM leukemia, in the test with OVCAR-5 ovarian, with PC-3 prostate and in the test with U251 CNS was above 100 µM each time. In addition, the TGI in the test on DU-145 prostate is above 100 µM.
